Assay results as given in PubChem BioAssay AID1159562 (GlaxoSmithKline (GSK), 2015).
Calls of active or inactive are those of the source. How the calls were made is not given here.

System: Trypanosoma brucei growth inhibition, luminescence
Assay: Trypanosoma brucei growth inhibition, luminescence (AID 1159562);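 further: parasites grew with compound for 24 h before the luminescence read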

| IC50 | SMILES |
| --- | --- |
| 16 µM | O=C(CN1CCN(S(=O)(=O)c2cccc([N+](=O)[O-])c2)CC1)Nc1ccc(Oc2ccccc2)cc1 |
| 6.3 µM | CC1CN(S(=O)(=O)c2ccc(NC(=O)c3cc(C4CC4)nc4c3cnn4C(C)C)cc2)CC(C)O1 (configuration not stated) |
| 32 µM | COc1cccc(CCNC(=O)C(c2cn[nH]c2)N2CCN(c3ccc(Cl)cc3)CC2)c1 (configuration not stated) |
| 1 µM | CN(C)S(=O)(=O)c1ccc(-c2cnc(N)c(-c3nc4ccc(F)cc4[nH]3)c2)cc1 |
| 6.3 µM | Cn1c(CC(=O)NNC(=O)c2ccc3ccccc3n2)nc2ccccc21 |
| > 40 µM (inactive) | Cc1nccn1C1CCCN(C(=O)c2cc3c(F)cccc3s2)C1 (configuration not stated) |
| 13 µM | c1ccc(Nc2nc(-c3ccccn3)cc(N3CCOCC3)n2)cc1 |
| 25 µM | Fc1ccc(Nc2nc(-c3ccccn3)cs2)cc1 |
| 1 µM | O=C(Nc1ccccc1)Nc1nc(-c2ccccn2)cs1 |
| 0.25 µM | Cc1ccc(NC(=O)c2ccnc(N3CCCC3)c2)cc1-c1cc(C(N)=O)ccc1C |
| 1 µM | COc1ccc(NS(=O)(=O)c2cccc(NC(=O)c3cc(F)cc(F)c3)c2)cc1 |
| > 50 µM (inactive) | O=C1CN(C(=O)c2cccc(Nc3ncc(-c4ccc5c(c4)OCO5)cn3)c2)CCN1 |
| > 40 µM (inactive) | CNc1c(C(N)=O)c(-c2ccc3scnc3c2)nn1CC(F)(F)F |
| 7.9 µM | O=C(CN(Cc1ccccn1)Cc1ccccn1)NCc1ccc(-c2csnn2)cc1 |
| 1.6 µM | Oc1c(-c2n[nH]c(CCc3ccccc3)n2)ncc2cccnc12 |
| 20 µM | Cc1ccccc1CNC(=O)CN(Cc1ccccn1)Cc1ccccn1 |
| 0.32 µM | NS(=O)(=O)c1ccc(Nc2ncc3cccc(OC4CCNCC4)c3n2)cc1 |
| > 40 µM (inactive) | O=C(CCCn1cnc([N+](=O)[O-])n1)Nc1cccc(Cl)c1 |
| 0.63 µM | CCS(=O)(=O)c1cccc(C(=O)Nc2nc(-c3ccccn3)cs2)c1 |
| 20 µM | Cc1ccc2nc(N(Cc3cccnc3)C(=O)CCc3ccccc3)sc2c1 |
| 2 µM | Nc1nc(-c2ccccn2)nc(N)c1Cc1c(F)cccc1Cl |

| IC50 | SMILES |
| --- | --- |
| 7.9 µM | CCCn1c(NC(=O)CCn2cc(Br)cn2)nc2ccccc21 |
| 13 µM | CC(c1ccc2c(c1)CCCC2)N(C)c1ncc2c(N)nc(N)nc2n1 (configuration not stated) |
| 0.5 µM | COc1cnc2ccc(=O)n(CCN3CCC(NC(=O)Cc4ccc(Cl)c(Cl)c4)CC3)c2c1 |
| > 40 µM (inactive) | O=C(COc1nn(-c2ccccc2)c2ncccc12)NCc1ccccc1 |
| 20 µM | O=C(NCc1ccncc1)c1ccccc1N1CCCN(C(=O)Cc2ccc(F)c(F)c2)CC1 |
| 1 µM | CNC(=O)C1Cc2ccccc2N1C(=O)Cc1ccccc1 (configuration not stated) |
| > 40 µM (inactive) | COc1cccc(-c2c(C)nn(-c3nc(N)nc(-c4ccccn4)n3)c2N)c1 |
| 0.79 µM | COc1ccc(C(=O)Nc2c(C)nn(COc3cccc(C(F)(F)F)c3)c2C)cc1 |
| 7.9 µM | N#CN1CC[C@@H](NC(=O)Nc2ccccc2Oc2ccccc2)C1 |
| 0.04 µM | Cc1cnc(Nc2cc(Cc3ccccc3)nc(NC3CCC(O)CC3)n2)s1 (configuration not stated) |
| 4 µM | Cc1ccc(Nc2nc(C3CCCN3Cc3ccn[nH]3)cs2)nc1 (configuration not stated) |
| 0.063 µM | COc1cc(OC)cc(C(=O)N[C@@H](CC(C)C)C(=O)NC2(C#N)CC2)c1 |
| 0.4 µM | CC(=O)Nc1cccc(Nc2ncnc3nc[nH]c23)c1 |
| 20 µM | N#Cc1ccc(S(=O)(=O)N2CCN(Cc3cccc(-c4ccncc4)c3)CC2)cc1 |
| 0.25 µM | N#Cc1cnc(Nc2cccc(CCN3CCOCC3)c2)nc1Nc1ccccc1C(N)=O |
| > 40 µM (inactive) | CN1CCCN(C(=O)c2ccc(N3CCCC3)cc2Cl)CC1 |
| > 40 µM (inactive) | COCc1cc(Nc2ccccc2)nc(-c2ccccn2)n1 |
| 0.5 µM | O=C(Nc1nccs1)c1ccccc1Cn1cc([N+](=O)[O-])cn1 |
| 7.9 µM | COc1ccc(NS(=O)(=O)c2cc(NC(=O)Cc3ccc(C)cc3)ccc2N2CCOCC2)cc1 |
| > 40 µM (inactive) | Cc1cc2cncn2c(C2CCCCN2C(=O)c2cccs2)n1 (configuration not stated) |
| 5 µM | CCn1c(NC(=O)Cc2ccc(F)cc2)nc2ccccc21 |
